Test results: publication PMC7753040, “Discovery of a Potent RIPK3 Inhibitor for the Amelioration of Necroptosis-Associated Inflammatory Injury” (Frontiers in Cell and Developmental Biology, 2020)

What was measured:
[1] = In vivo mouse pharmacokinetic study; conditions: male ICR mouse, 10 mg/kg (po), read-out: AUC (exposure)
Procedure: (§1) Cytochrome P450 (CYP) inhibitory potency was determined by industrial standard methods as reported previously ([Dong et al., 2015]). Methods to determine potassium channel hERG inhibition and in vivo pharmacokinetic parameters have been previously published ([Lu et al., 2017]).
(§2) (C) Pharmacokinetic parameters of Zharp-99 determined in male ICR mouse.

RIPK1/RIPK3 complex = target: T1, RIPK1/RIPK3 complex (Homo sapiens, UniProt Q9Y572); assay: RIPK1/RIPK3 necrosome formation in HT-29 cells stably expressing Flag-RIPK3 (immunoprecipitation); format: cell-based; conditions: TNF-α/Smac/z-VAD 8 h
T1 construct: expressed in transfected cells; host or cells: HT-29 (W46), gift of Dr. Xiaodong Wang
Procedure: The cell pellets were harvested and dissolved in lysis buffer (20 mM Tris–HCl, pH 7.4 150 mM NaCl, 1% Triton X-100, 1 mM Na3VO4, 10% glycerol, 25 mM β-glycerol-phosphate, 0.1 mM PMSF, with the Sigma phosphatase inhibitors and the Roche Pierce protease inhibitor set). The re-suspended cell pellet was then incubated on ice for 20 min, followed by centrifugation at 13000 × g for 20 min at 4°C. The supernatants were collected and protein concentrations were measured using the BCA Protein Assay Kit (Thermo Fisher Scientifc, United States). Finally, cell lysates were subjected for western-blot analysis of the indicated antibodies.
Cell lysates were prepared for immunoprecipitation using an anti-Flag antibody. The levels of RIPK3 and RIPK1 in the immunocomplex were determined by western blot analysis.

[2] = Metabolic stability in rat liver microsomes; format: in vitro ADME
C57BL/6 mice = assay: TNF-induced systemic inflammatory response syndrome in mice
Procedure: The status of mice was monitored by measuring anal temperature. Mice mortality was continuously monitored till 60 h after TNF-α administration. Blood was collected 4 h post TNF-α challenge and serum was isolated for further examination.
(A,B) The survival rate (A) and body temperature loss (B) were monitored. […] P-values were determined using the ONE-way ANOVA and multi-comparison test for statistics analysis. (C) After 4 h, serum was collected for mouse IL6 level analysis by ELISA. Data are represented as the mean ± standard deviation.

HeLa-MLKL (1–190) cells = assay: MLKL polymerization-induced necroptosis in HeLa-MLKL (1-190) cells (AP20187); format: cell-based, human; conditions: doxycycline 1 μg/ml 24 h, 2 h pretreatment, AP20187 60 nM 24 h
Text: Human colon cancer HT-29 and mouse fibrosarcoma L929 cells were from ATCC. Mouse embryonic fibroblasts (MEF), HT-29 cells stably expressing RIPK3-shRNA and shRNA resistant scramble Flag-tagged RIPK3 (W46), and NIH3T3 cell line stably expressing RIPK3 fused to mutant FK506-binding protein (NIH3T3-RIPK3) were kindly provided by Dr. Xiaodong Wang [National Institute of Biological Sciences (NIBS), Beijing]. HeLa-MLKL (1-190) cell line was a gift from Dr. Zhigao Wang (University of Texas Southwestern Medical Center at Dallas). These cells were cultured in Dulbecco’s modified Eagle’s medium (Hyclone) supplemeted with 10% fetal bovine serum (Invitrogen) and 2 mM L-glutamine (Invitrogen) in a humidified incubator at 37°C and 5% CO2. […]
Cells were seeded in 96-well plates and then treated as indicated. The cell viability was determined by assessment of ATP levels using the CellTiter-Glo Luminescent Cell Viability Assay kit following the manufacture’s instructions (Promega). Luminescence was calculated with SpectraMax i3x (Molecular Devices).
In vitro kinase activity assays using recombinant RIPK3 and RIPK1 were performed as described in the section “Materials and Methods.” Data represent mean value ± standard deviation. […] Cell viability was determined by measuring ATP levels. […] Cell viability was determined by measuring ATP levels. […]

MEFs = assay: Activation of caspase-3 / apoptosis in MEFs (western blot, cell viability); format: cell-based
Procedure: (§3) In vitro kinase activity assays using recombinant RIPK3 and RIPK1 were performed as described in the section “Materials and Methods.” Data represent mean value ± standard deviation. […] NIH3T3-RIPK3 cells were pretreated with indicated compounds for 2 h and subsequently treated with AP20187 (60 nM) for 24 h. Cell viability was determined by measuring ATP levels. […] HeLa-MLKL (1–190) cells were induced by doxycycline (1 μg/ml) for 24 h. Cells were pretreated with indicated compounds for 2 h and subsequently treated with AP20187 (60nM) for 24h. Cell viability was determined by measuring ATP levels. […] (F) MEFs were treated as indicated for 3 h. Cell lysates were harvest and subjected to western-blot analysis for full length and cleaved caspase 3.

human RIPK1 = target: T2, human RIPK1 (Homo sapiens, UniProt Q13546); assay: In vitro kinase activity assay (ADP-Glo), RIPK1; format: biochemical; conditions: at 10 μM; ATP 50 μM, MBP 20 μM
T2 construct: purchased SignalChem
Procedure: (§4) The recombinant human RIPK1 or RIPK3 protein was incubated with the control DMSO or the indicated compound for around 15 min in the assay buffer (25 mM HEPES PH7.2, 12.5 mM MnCl2, 5 mM EGTA, 20 mM MgCl2, 12.5 mM β-glycerol phosphate, 2 mM EDTA, and 2 mM DTT). ATP (50 μM) and the substrate MBP (20 μM) were then added to the reaction at room temperature for 2 h. The kinase activity was calculated by the measuring the luminescence after the addition of the ADP-Glo Kinase Assay kit according to the manufacture’s instructions (Promega).
as §3

[3] = Metabolic stability in human liver microsomes; format: in vitro ADME
Text: Encouraged by the in vitro and in vivo efficacy data, we sought to evaluate the preliminary drugability profile of Zharp-99.
as §2

CYP1A2 = CYP1A2 (Homo sapiens, UniProt P05177); assay: Cytochrome P450 inhibition, CYP1A2; format: in vitro ADME
Procedure: as §1

human RIPK3 = target: T3, human RIPK3 (Homo sapiens, UniProt Q9Y572); assay: In vitro kinase activity assay (ADP-Glo), RIPK3; format: biochemical; conditions: ATP 50 μM, MBP 20 μM; compared to GSK’872
T3 construct: purchased SignalChem
Procedure: as §4, §3

CYP3A4 = CYP3A4 (Homo sapiens, UniProt P08684); assay: Cytochrome P450 inhibition, CYP3A4; format: in vitro ADME
Procedure: as §1

CYP2C19 = CYP2C19 (Homo sapiens, UniProt P33261); assay: Cytochrome P450 inhibition, CYP2C19; format: in vitro ADME
Procedure: as §1

CYP2D6 = CYP2D6 (Homo sapiens, UniProt P10635); assay: Cytochrome P450 inhibition, CYP2D6; format: in vitro ADME
Procedure: as §1

[4] = 5 mg/kg i.p. 15 min before mouse TNF-α 6.5 μg/mouse i.v.

CYP2D6, sequence (P10635 whole entry): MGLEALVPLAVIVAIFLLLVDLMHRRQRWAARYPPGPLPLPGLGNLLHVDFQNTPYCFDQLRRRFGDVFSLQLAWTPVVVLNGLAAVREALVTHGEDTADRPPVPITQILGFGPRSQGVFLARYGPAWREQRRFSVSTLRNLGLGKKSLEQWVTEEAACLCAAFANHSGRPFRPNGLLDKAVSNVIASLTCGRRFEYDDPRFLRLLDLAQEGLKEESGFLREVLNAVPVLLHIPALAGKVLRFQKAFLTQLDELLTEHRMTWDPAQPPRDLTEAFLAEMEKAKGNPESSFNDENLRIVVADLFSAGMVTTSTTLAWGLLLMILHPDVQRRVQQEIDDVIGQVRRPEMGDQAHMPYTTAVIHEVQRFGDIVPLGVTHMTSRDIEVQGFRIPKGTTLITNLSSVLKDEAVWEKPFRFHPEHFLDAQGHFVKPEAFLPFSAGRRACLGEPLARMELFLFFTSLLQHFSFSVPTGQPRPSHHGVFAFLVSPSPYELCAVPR
CYP1A2, sequence (P05177 whole entry): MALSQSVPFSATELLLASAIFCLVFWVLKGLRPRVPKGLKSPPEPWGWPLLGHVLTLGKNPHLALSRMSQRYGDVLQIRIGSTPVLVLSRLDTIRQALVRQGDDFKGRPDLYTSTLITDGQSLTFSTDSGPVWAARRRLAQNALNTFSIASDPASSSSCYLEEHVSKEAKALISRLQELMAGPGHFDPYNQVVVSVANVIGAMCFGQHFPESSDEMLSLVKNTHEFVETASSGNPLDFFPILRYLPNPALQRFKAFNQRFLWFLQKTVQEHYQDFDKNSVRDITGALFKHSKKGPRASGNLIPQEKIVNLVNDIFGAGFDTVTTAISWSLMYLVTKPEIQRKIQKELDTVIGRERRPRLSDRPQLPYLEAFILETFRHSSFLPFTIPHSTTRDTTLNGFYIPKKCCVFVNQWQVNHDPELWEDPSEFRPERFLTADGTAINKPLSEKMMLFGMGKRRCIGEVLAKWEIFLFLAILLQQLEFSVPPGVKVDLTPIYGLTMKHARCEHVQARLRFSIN
CYP2C19, sequence (P33261 whole entry): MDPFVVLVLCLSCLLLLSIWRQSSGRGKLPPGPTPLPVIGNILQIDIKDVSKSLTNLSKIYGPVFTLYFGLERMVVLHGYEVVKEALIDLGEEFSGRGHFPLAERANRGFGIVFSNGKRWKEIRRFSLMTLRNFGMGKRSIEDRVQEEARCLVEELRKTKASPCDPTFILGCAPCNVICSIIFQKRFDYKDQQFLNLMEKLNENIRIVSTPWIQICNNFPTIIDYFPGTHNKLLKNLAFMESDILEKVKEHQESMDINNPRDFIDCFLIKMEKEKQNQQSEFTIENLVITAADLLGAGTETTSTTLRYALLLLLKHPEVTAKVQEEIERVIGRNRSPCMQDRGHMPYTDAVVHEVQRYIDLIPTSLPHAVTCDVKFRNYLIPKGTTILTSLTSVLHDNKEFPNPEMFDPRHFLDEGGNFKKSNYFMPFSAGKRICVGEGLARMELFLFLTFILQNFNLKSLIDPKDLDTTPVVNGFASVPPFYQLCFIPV
CYP3A4, sequence (P08684 whole entry): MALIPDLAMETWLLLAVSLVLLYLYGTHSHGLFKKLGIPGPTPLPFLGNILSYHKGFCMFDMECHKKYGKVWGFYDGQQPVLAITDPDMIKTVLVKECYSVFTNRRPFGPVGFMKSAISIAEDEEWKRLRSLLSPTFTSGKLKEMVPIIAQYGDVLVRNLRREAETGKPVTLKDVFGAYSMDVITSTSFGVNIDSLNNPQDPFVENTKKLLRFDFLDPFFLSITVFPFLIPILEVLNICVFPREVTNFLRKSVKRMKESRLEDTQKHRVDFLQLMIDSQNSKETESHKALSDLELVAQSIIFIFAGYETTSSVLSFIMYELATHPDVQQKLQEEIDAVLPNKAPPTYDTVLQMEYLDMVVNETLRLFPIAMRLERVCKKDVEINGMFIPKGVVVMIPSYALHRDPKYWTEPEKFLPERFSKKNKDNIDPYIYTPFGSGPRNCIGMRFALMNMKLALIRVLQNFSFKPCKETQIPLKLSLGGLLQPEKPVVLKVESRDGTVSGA
T2 sequence (Q13546 1-327 limits assumed): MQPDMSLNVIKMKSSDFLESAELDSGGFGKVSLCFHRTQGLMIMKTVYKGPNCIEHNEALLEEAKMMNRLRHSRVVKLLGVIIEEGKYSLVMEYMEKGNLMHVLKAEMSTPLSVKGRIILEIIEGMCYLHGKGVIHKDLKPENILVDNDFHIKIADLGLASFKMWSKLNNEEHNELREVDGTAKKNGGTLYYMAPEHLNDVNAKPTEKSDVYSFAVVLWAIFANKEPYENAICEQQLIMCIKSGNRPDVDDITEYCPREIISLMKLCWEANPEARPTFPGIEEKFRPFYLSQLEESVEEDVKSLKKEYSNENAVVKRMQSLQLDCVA
T3 sequence (Q9Y572 whole entry): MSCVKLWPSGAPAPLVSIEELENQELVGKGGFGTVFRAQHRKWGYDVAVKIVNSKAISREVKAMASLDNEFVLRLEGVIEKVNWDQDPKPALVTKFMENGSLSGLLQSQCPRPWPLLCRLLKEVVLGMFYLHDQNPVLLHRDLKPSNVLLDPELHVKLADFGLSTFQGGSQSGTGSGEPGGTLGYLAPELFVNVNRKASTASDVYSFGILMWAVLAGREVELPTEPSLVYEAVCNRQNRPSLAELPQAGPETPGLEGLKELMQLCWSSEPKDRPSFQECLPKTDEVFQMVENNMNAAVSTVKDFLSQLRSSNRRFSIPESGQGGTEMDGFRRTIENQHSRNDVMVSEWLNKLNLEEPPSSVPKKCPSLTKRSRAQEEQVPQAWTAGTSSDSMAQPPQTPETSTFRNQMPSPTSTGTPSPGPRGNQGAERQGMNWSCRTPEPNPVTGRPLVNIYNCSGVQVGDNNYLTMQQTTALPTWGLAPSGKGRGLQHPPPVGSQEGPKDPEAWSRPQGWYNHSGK
T1 sequence (Q9Y572 whole entry): as above
T1 sequence (Q13546 whole entry partner): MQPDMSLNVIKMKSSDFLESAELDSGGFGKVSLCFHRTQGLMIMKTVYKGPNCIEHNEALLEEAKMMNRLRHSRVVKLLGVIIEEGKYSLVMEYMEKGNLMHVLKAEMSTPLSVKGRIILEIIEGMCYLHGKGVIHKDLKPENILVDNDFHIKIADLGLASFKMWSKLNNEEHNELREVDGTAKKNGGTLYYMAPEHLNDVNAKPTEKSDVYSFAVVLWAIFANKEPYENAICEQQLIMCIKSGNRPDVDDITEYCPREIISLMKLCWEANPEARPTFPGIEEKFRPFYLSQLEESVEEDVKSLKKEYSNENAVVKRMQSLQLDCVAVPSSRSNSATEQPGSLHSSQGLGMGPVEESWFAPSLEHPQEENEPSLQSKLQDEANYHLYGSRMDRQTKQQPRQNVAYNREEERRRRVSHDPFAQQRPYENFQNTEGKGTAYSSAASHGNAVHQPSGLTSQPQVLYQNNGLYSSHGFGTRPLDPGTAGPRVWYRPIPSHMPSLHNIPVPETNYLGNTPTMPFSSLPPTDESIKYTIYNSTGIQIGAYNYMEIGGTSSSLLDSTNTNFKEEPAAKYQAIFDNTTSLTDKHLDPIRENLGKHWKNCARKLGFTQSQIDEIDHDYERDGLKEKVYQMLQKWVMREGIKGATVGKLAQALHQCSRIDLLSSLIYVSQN

Q: For O=S1(=O)C=C(C2CC2)c2cc3nccc(Nc4ccc5scnc5c4)c3cc21 [Zharp-99], which AUC [1] is on record?
A: Its AUC is 8220 ng·h/mL.

Q: What about the RIPK1/RIPK3 necrosome formation (RIPK1/RIPK3 complex) of the same compound?
A: The RIPK1/RIPK3 necrosome formation was “did not affect”.

Q: And the CLint scaled ([2]; rat liver microsomes)?
A: The CLint scaled was 67 mL/min/kg.

Q: What about the Clint ([2]; rat liver microsomes) of the same compound?
A: Its Clint is “moderate”.

Q: And the half-life ([2]; rat liver microsomes (RLM))?
A: The half-life was 37 min.

Q: What about the TNFα-induced temperature loss (C57BL/6 mice; [4]) of the same compound?
A: Its TNFα-induced temperature loss is “ameliorated”.

Q: And the “protection against TNFα-induced lethal shock (survival)” value (C57BL/6 mice; [4])?
A: The value was “significantly protected”.

Q: What about the “TNFα-induced production of IL-6 in the serum” value (C57BL/6 mice; 5 mg/kg i.p., serum 4 h post TNF-α, ELISA) of the same compound?
A: Its value is “reduced”.

Q: And the “polymerized MLKL-induced necroptosis” value (HeLa-MLKL (1–190) cells)?
A: The value was “did not affect”.

Q: What about the “induction of apoptosis compared to GSK’872” value (MEFs; MEFs) of the same compound?
A: The value was “more potent”.

Q: What about the “activation of caspase-3 and cell death” value (MEFs; especially in mouse cells, MEFs treated 3 h (western blot)) of the same compound?
A: Its value is “induced activation of caspase-3 and cell death in a dose-dependent manner”.

Q: And the “effect on RIPK1 kinase activity” value (human RIPK1)?
A: The value was “did not affect”.

Q: And the CLint scaled [3]?
A: The CLint scaled was 63 mL/min/kg.

Q: What about the Clint [3] of the same compound?
A: The Clint was “moderate”.

Q: And the half-life [3]?
A: Its half-life is 28 min.

Q: And the “% of CYP inhibiton 1A2” value (CYP1A2; 10 μM)?
A: Its value is “did not inhibit”.

Q: And the inhibition at 10 µM (CYP1A2; human, read-out: % of CYP inhibiton 1A2)?
A: Its inhibition at 10 µM is 9.26%.

Q: And the “inhibition of the kinase activity of human RIPK3 in vitro” value (human RIPK3)?
A: The value was “higher inhibitory activity compared to GSK’872”.

Q: And the “% of CYP inhibiton CYP3A4” value (CYP3A4; 10 μM)?
A: Its value is “did not inhibit”.

Q: What about the inhibition at 10 µM (CYP3A4; human, read-out: % of CYP inhibiton CYP3A4) of the same compound?
A: The inhibition at 10 µM was 5.04%.

Q: What about the “% of CYP inhibiton 2C19” value (CYP2C19; 10 μM) of the same compound?
A: The value was “did not inhibit”.

Q: What about the inhibition at 10 µM (CYP2C19; human, read-out: % of CYP inhibiton 2C19) of the same compound?
A: Its inhibition at 10 µM is 4.15%.

Q: And the “% of CYP inhibiton 2D6” value (CYP2D6; 10 μM)?
A: Its value is “did not inhibit”.

Q: And the inhibition at 10 µM (CYP2D6; human, read-out: % of CYP inhibiton 2D6)?
A: Its inhibition at 10 µM is -0.44%.
